Data on five molecules can be found in patent US20230031954A1, “TETRACYCLINE COMPOUNDS AND METHODS OF TREATMENT” (Tetraphase Phamaceuticals, Inc., priority 2016, published 2023).

Molecules are shown by their SMILES. A value given as a limit tells only on which side of the number the result lay.

One assay deals with MV4-11 cell line. Description: MV4-11 anti-proliferation assay (CellTiterGlo, 72 hour). It is filed as cell-based. As to conditions: Homo sapiens, MV4-11 cells. The protocol: MV4-11 cell line (MV-4-11, CRL-9591™) was obtained from American Type Culture Collection (ATCC). Cells were grown in a T-75 flask in RPMI Medium (GIBCO, Catalog No. 11875-093) containing 10% fetal bovine serum (ATCC, Catalog No. 30-2020) and penicillin-streptomycin (ATCC, Catalog No. 30-2300) at 37° C. in a humidified, 5% CO2 incubator.
(§1) 50 μL of cells (10,000 cells/well) were plated in a 96-well plate and incubated overnight at 37° C. in a humidified, 5% CO2 incubator. The next day, 50 μL of medium containing 3-fold serially diluted compounds in duplicate was added to the wells such that the starting concentration of the compound in the first pair of the wells was 10 μM. After 72 hour incubation with the compound, cell viability was measured in a luminometer after the addition of 100 μL/well CellTiterGlo reagent (Promega) as recommended by the manufacturer. The IC50 values for the compounds were calculated using SoftMax software.

The next assay relates to K562 cell line. Kind of assay: Proliferation assay in K562 cell line (CellTiterGlo, 72 hour). As to conditions: Homo sapiens, K562 cells. It counts as cell-based. The protocol:
(§2) Compounds 1, 2, 3a, 4a and 5 as well as certain Compound included in FIGS. 15A-15M, 16A-16F and 17A-17D were tested in the following cell lines: MOLT4 and K562. Compounds 1, 2, 3a, 4a and 5 were also tested in the cell line HL60.
(§3) The MOLT4 cell line (CRL-1582™) and K562 cell line (CCL-243™) were obtained from American Type Culture Collection (ATCC). They were grown in a T-75 flask in RPMI Medium (GIBCO, Catalog No. 11875-093) containing 10% fetal bovine serum (ATCC, Catalog No. 30-2020) and penicillin-streptomycin (ATCC, Catalog No. 30-2300) at 37° C. in a humidified, 5% CO2 incubator. The HL60 cell line (CCL-240™) was obtained from American Type Culture Collection (ATCC). They were grown in a T-75 flask in DMEM Medium (GIBCO, Catalog No. 11965-092) containing 20% fetal bovine serum (ATCC, Catalog No. 30-2020) and penicillin-streptomycin (ATCC, Catalog No. 30-2300) at 37° C. in a humidified, 5% CO2 incubator.
as §1, with “(8,500” for “(10,000”

The subject of another assay is THP-1 cells. Kind of assay: THP-1 anti-proliferation assay (Cell Titer GLO, 72 hr). It counts as cell-based. As to conditions: Homo sapiens. The protocol:
The inhibition of eukaryotic cell culture growth was established using THP-1 cells (ATCC Cat. #TIB-202), a human acute monocytic leukemia cell line. These are suspension cells. This cell-based assay for eukaryotic culture growth inhibition was performed in 384-well plate format to determine the in vitro cytotoxicity of the test compounds.
Compounds were solubilized in water. Compounds were diluted 1:2 in assay media and 1:2 serial dilutions were performed in 50:50 media:water mix. The high dose was 40 μM, 10% water final. 5 μL of compound at 5× the final concentration was dispensed to the 384 assay plate. 20 μL of THP-1 cells were added.
Compounds were plated in dose response format (10% water final concentration), followed by the addition of cells. Cells were grown and incubated with compounds in RPMI-1640 medium/pen/strep/L-glutamine/10% FBS/2-mercaptoethanol for 72 hr at 37° C. with 5% CO2. At the end of the incubation time, cells were assayed for viability using Cell Titer GLO (Promega).

In the next assay the test system is MOLT4 cell line. Kind of assay: Proliferation assay in MOLT4 cell line (CellTiterGlo, 72 hour). It counts as cell-based. As to conditions: Homo sapiens, MOLT-4, MOLT4 cells. The protocol:
as §2, §3
as §1, with “(8,500” for “(10,000”

The test system of a further assay is HL60 cell line. Kind of assay: Proliferation assay in HL60 cell line (CellTiterGlo, 72 hour). It counts as cell-based. To be noted: Homo sapiens, HL-60, HL60 cells. The protocol: as §2, §3
as §1, with “(8,500” for “(10,000”

Assay [1] concerns mitochondrial protein synthesis. Kind of assay: Intact isolated rat heart mitochondrial protein synthesis assay ([S35]-methionine incorporation). To be noted: isolated rat heart mitochondria, 0.15 to 40 μM; read-out: dose-response curve IC50, mitochondrial protein synthesis. It counts as biochemical. The protocol: The effect of Compound 3a on mitochondrial protein synthesis was determined using an intact isolated rat heart mitochondrial protein synthesis assay previously described [See, 1, 2 below]. Intact, highly coupled mitochondria isolated from normal rat hearts were incubated in an incubation medium containing [S^35]-methionine. The compounds were diluted to generate a final dose-response curve from 0.15 to 40 μM. The rate of incorporation of [S^35]-methionine into protein was measured at 20, 40, and 60 minutes of incubation for each sample using a filter paper disc assay and expressed as pmol methionine incorporated per mg mitochondrial protein as described [1, 2, 3 below]. The time course data for control and all drug concentrations were nearly linear. The slope of each time-course data plot is calculated as the least squares best fit line through zero and the three time points for each sample. The rate of protein synthesis varies modestly with each mitochondrial preparation (mean and SEM=20.3+/−2.4 pm/mg protein). To normalize for this variability, the rates were expressed as a percent of the rate of the control line for each preparation of mitochondria.
Each experiment was repeated three times.
Dose-response curves were obtained by expressing the percent of control obtained for each concentration of Compound 3a against the concentration of Compound 3a. […]

Assay [2] has as its system subcutaneous MV4-11 leukemia model. Description: MV4-11 xenografts: in vivo anti-tumor efficacy in CB17 SCID mice. On the set-up: species or system mouse. As to conditions: for tumor response: dosed at maximum tolerated dose, cytarabine 100 mg/kg I.P. QD, tigecycline 50 mg/kg I.P. BID. On the procedure: The in vivo anti-tumor efficacy of Compounds 3a, 4a and 5 in the subcutaneous MV4-11 leukemia model in CB17 SCID mice was tested.
The MV4-11 cells (ATCC-CRL-9591) were maintained in vitro as a suspension culture at a density of 0.2-1.5×10^6 cells/ml in RPMI1640 medium supplemented with 10% heat inactivated fetal bovine serum, 100 U/ml penicillin and 100 μg/ml streptomycin at 37° C. in an atmosphere of 5% CO2 in air. The tumor cells were routinely subcultured twice weekly. The cells growing in an exponential growth phase were harvested and counted for tumor inoculation.
CB17 SCID, female, 6-8 weeks, weighing approximately 18-22 g.
Each mouse was inoculated subcutaneously at the right flank with MV4-11 tumor cells (10×10^6) in 0.2 ml of PBS (with Matrigel 1:1) for tumor development. The animals were randomized and treatment was started when the average tumor volume reached approximately 150-200 mm^3 for the efficacy study. The test article administration and the animal numbers in each group are shown below.
The major endpoint monitored was tumor growth delay or cure. Tumor sizes were measured twice weekly in two dimensions using a caliper, and the volume expressed in mm^3 using the formula: V=0.5 a×b^2 where a and b are the long and short diameters of the tumor, respectively. The tumor sizes were then used for the calculations of both T-C and T/C values. T-C is calculated with T as the median time (in days) required for the treatment group tumors to reach a predetermined size (e.g., 1,000 mm^3), and C is the median time (in days) for the control group tumors to reach the same size. […]
TGI was calculated for each group using the formula: TGI (%)=[1−(Ti−T0)/(Vi−V0)]×100; Ti is the average tumor volume of a treatment group on a given day, T0 is the average tumor volume of the treatment group on the first day of treatment, Vi is the average tumor volume of the vehicle control group on the same day with Ti, and V0 is the average tumor volume of the vehicle group on the first day of treatment.

For assay [3], the system named is AML ex-vivo bone marrow samples. Kind of assay: Antiproliferative activity against 15 AML ex-vivo bone marrow samples (Vivia's Native Environment cell depletion assay). As to conditions: 48 hours post drug exposure. It counts as cell-based, human. On the procedure:
Antiproliferative activity of Compound 3a and cytarabine was measured against 15 AML ex-vivo bone marrow samples (including two cytarabine-resistant samples). The assay used was Vivia's Native Environment cell depletion assay. An outline of the study is below: • Five different concentrations of each drug was used as a monotherapy • The incubation time point for measurement was 48 hours post drug exposure The results are shown graphically in FIG. 6.

In the case of `CCN[C@@H]1C(O)=C(C(N)=O)C(=O)[C@@]2(O)C(O)=C3C(=O)c4c(O)cc([C@@H]5CCCN5CC)c(OC)c4C[C@H]3C[C@@H]12` (single isomer, unassigned) [Compound 4a], the IC50 worked out at 0.13 µM in the assay with MV4-11 cell line; 0.13 µM in the assay with K562 cell line; 0.9 µM in the assay on THP-1 cells; 0.13 µM in the assay with MOLT4 cell line; 0.41 µM in the assay with HL60 cell line.

`CCN1CCC[C@H]1c1cc(O)c2c(c1OC)C[C@H]1C[C@H]3[C@H](N)C(O)=C(C(N)=O)C(=O)[C@@]3(O)C(O)=C1C2=O` [Compound 3a]: the IC50 turned out to be 0.1 µM in the assay on MV4-11 cell line; 0.11 µM in the assay on K562 cell line; 700 nM in assay [1]; 0.75 µM in the assay with THP-1 cells; 0.12 µM in the assay with MOLT4 cell line; 0.37 µM in the assay with HL60 cell line. The tumor shrinkage in assay [2] (all animals treated, 12.5 mg/kg I.P., dose 1 and dose 2 of Table 1C) is recorded as not below 70%. The “ex vivo activity against the tumor cells from frozen bone marrow of the AML patients” value in assay [3] (monotherapy) is on record as “potent ex vivo activity”. A half-maximal response in assay [3] (Homo sapiens, 15 AML ex-vivo bone marrow samples) (EC50) required 170 nM.

With `NC(=O)C1=C(O)[C@@H](N)[C@@H]2C[C@@H]3Cc4c(F)cc(NC(=O)CN5CCCC5)c(O)c4C(=O)C3=C(O)[C@]2(O)C1=O` [Compound 5], the IC50 in the assay on MV4-11 cell line is 0.17 µM; in the assay with K562 cell line, 0.16 µM; with THP-1 cells, 0.64 µM; in the assay with MOLT4 cell line it was 0.13 µM; with HL60 cell line, 0.51 µM.

On to `Nc1ccn([C@@H]2O[C@H](CO)[C@@H](O)[C@@H]2O)c(=O)n1` [Cytarabine], for which the tumor response result in assay [2] was “no tumor response”.

Consider `CN(C)c1cc(NC(=O)CNC(C)(C)C)c(O)c2c1C[C@H]1C[C@H]3[C@H](N(C)C)C(O)=C(C(N)=O)C(=O)[C@@]3(O)C(O)=C1C2=O` [Tigecycline, tigecycline, reference compound], for which the IC50 is 4.64 µM in the assay with MV4-11 cell line; 7.2 µM in the assay on K562 cell line; 29.1 µM in the assay on THP-1 cells; 5.1 µM in the assay with MOLT4 cell line; 15.4 µM with HL60 cell line. Also, the tumor response entry in assay [2] is on record as “no tumor response”.
